Measurements reported in patent US20210259981A1, “COMPOSITIONS AND METHODS OF TREATMENT” (Blueberry Therapeutics Limited, priority 2018, published 2021).
In brackets after ≈: the same amount, converted by molar mass.

Legend:
[1] = Solubility of APIs in ethanol & water vehicles; type: physicochemical; conditions: for Solubility in water and ethanol (in words): comparison among the screened APIs
[2] = tested on: IL-8 release, THP-1 cells; test: LPS-stimulated IL-8 release in THP-1 cells (inflammation assay); type: cell-based, human; conditions: for potency at inhibiting the LPS inflammatory response (in words): IL-8, dose range 0-30 ug/ml; for MIC (inhibiting the LPS IL-8 response): API dose range 0-30 ug/ml
[3] = Franz cell porcine skin permeation, ToF-SIMS tape strip analysis; type: in vitro ADME, pig; conditions: for evidence of permeation (key findings): porcine skin, ToF-SIMS imaging and tape stripping, with or without Nanocin
[4] = tested on: TNF-α release, THP-1 cells; test: LPS-stimulated TNF-α release in THP-1 cells (inflammation assay); type: cell-based, human; conditions: final concentration 1 or 0.1 ug/ml; normalised with cell count
Description: The release of cytokines (looking particularly at those associated with inflammation-TNF-α, IL-8, IL-1α) after stimulation with lipopolysaccharide (LPS) is a valid model system to test compounds for potential anti-inflammatory effects (Reference 1)
To standardise conditions for the assay, a LPS dose (0-1 ug/ml) was investigated on TNF-α, IL-8 and IL-1α response, over a time period from 2, 4 and 24 hours.
A 1:1 mg/ml (Nanocin:API) was initially formulated in 20% ethanol and the stock formulation was then diluted down with serum free media and tested at a final concentration of 1 or 0.1 ug/ml.

[5] = Franz cell porcine skin permeation, ToF-SIMS cross sectional analysis; type: in vitro ADME, pig; conditions: cross sections; 1 mg/ml Diclofenac; partial embedding
Description: The experimental work involved applying various formulations to the skin in a Franz cell, leaving it for 24 hours as an infinite dose. Initial formulations were 1 mg/ml Nanocin and 300 ug/ml API in 20% ethanol. The same concentration of formulation were also used using FITC labelled Nanocin. Methods of detection was by: Franz Cell Method 1: Full OCT Embedding Method and Cryo-Sectioning; Franz Cell Method 2: Partial OCT Embedding and Cryo-Sectioning; Franz Cell Method 3: Partial OCT Embedding and Tape Stripping; and Time-of-Flight Secondary Ion Mass Spectrometry (ToF-SIMS) Fluorescence Microscopy.
Porcine ears used for the Franz cell analysis were sourced from a local abattoir. The age of the pig slaughtered were between 4-6 months old. The ears were cleaned with deionised water and the outside skin was carefully removed from the underlying cartilage. The excised skin was then stored at −20° C. until use. All ears used for the permeation experiment were within 6 months after procurement.
Prior to setting up the Franz cells, the skin was defrosted by leaving it at room temperature and pressure. Excess hairs on the porcine skin were not trimmed in this instance (to promote capacity to identify follicular delivery). […]

Row | Solubility in water and ethanol (in words) [1] | Compound | potency at inhibiting the LPS inflammatory response (in words) ([2]; THP-1 cells) | MIC (inhibiting the LPS IL-8 response) ([2]; THP-1 cells, 24 h) [µg/mL] | evidence of permeation (key findings) [3] | further results
1 |  | C=CC[C@@H]1/C=C(\C)C[C@H](C)C[C@H](OC)[C@H]2O[C@@](O)(C(=O)C(=O)N3CCCC[C@H]3C(=O)O[C@H](/C(C)=C/[C@@H]3CC[C@@H](O)[C@H](OC)C3)[C@H](C)[C@@H](O)CC1=O)[C@H](C)C[C@@H]2OC [Tacrolimus] | more potent than Ibuprofen | 0.3 (≈ 0.373 µM) | no evidence | Solubility ([1]; 10 mg/ml API solution, 10% ethanol): x(better); anti-inflammatory effect, IL-8 normalised with cell count ([2]; 30 ug/ml API, 10 ug/ml LPS, 24 h): more effective anti-inflammatory
2 |  | CO[C@H]1C[C@@H]2CC[C@@H](C)[C@@](O)(O2)C(=O)C(=O)N2CCCC[C@H]2C(=O)O[C@H]([C@H](C)C[C@@H]2CC[C@@H](O)[C@H](OC)C2)CC(=O)[C@H](C)/C=C(\C)[C@@H](O)[C@@H](OC)C(=O)[C@H](C)C[C@H](C)/C=C/C=C/C=C/1C [Rapamycin] |  | 1 (≈ 1.09 µM) | no evidence | 
3 | better solubility | CC(C)Cc1ccc(C(C)C(=O)O)cc1 (stereo not drawn) [Ibuprofen] |  |  | no evidence | effect on reducing the IL-8 release ([2]; 30 ug/ml API, LPS 24 h, THP-1 cells): very little effect
4 | insolubility | Cc1ccc(-c2cc(C(F)(F)F)nn2-c2ccc(S(N)(=O)=O)cc2)cc1 [Celecoxib] |  |  |  | 

Row | Compound | Solubility in water and ethanol (in words) [1] | potency at inhibiting the LPS inflammatory response (in words) ([2]; THP-1 cells) | MIC (inhibiting the LPS IL-8 response) ([2]; THP-1 cells, 24 h) [µg/mL] | evidence of permeation (key findings) [3] | further results
5 | O=C(O)Cc1ccccc1Nc1c(Cl)cccc1Cl [Diclofenac] | most soluble | more potent than Ibuprofen | 1 (≈ 3.38 µM) |  | LPS-stimulated TNF-α response [4]: reduced; intensity of Cl—, NaCl2- and Na2Cl3- markers in the stratum corneum [5]: slight elevation; LPS-stimulated IL-8 response ([2]; final concentration 1 or 0.1 ug/ml, normalised with cell count): reduced; presence of NaCl2— and Na2Cl3— ions (diclofenac markers) ([3]; tape strips 1-3, 1 mg/ml Diclofenac): none
